Assay results: patent publication US12618095B2, “Medium for Bacillus cereus group detection” (SHIMADZU DIAGNOSTICS CORPORATION, priority 2020, dated 2026)

What was measured:
Assay in all cases: Test Example 10: agar medium with aztreonam or ceftazidime
E. coli = format: cell-based; settings: 22 hours; for Number of colonies: ATCC8739
B. thuringiensis = settings: NBRC101235, 22 hours
E. amnigenus = settings: 22 hours; for Number of colonies: ATCC33072
B. cereus = settings: 22 hours
[1] = Ceftazidime 0.05 mg, 10^1 cfu/mL
[2] = Ceftazidime 0.05 mg, 10^2 cfu/mL
[3] = Ceftazidime 0.05 mg, 10^3 cfu/mL
[4] = Ceftazidime 0.05 mg, 10^4 cfu/mL
[5] = Ceftazidime 0.05 mg, 10^5 cfu/mL
[6] = Ceftazidime 0.5 mg, 10^1 cfu/mL
[7] = Ceftazidime 0.5 mg, 10^2 cfu/mL
[8] = Ceftazidime 0.5 mg, 10^3 cfu/mL
[9] = Ceftazidime 0.5 mg, 10^4 cfu/mL
[10] = Ceftazidime 0.5 mg, 10^5 cfu/mL

CC(C)(O/N=C(\C(=O)N[C@@H]1C(=O)N2C(C(=O)[O-])=C(C[n+]3ccccc3)CS[C@H]12)c1csc(N)n1)C(=O)O [ceftazidime]
Number of colonies (E. coli; [1]): − | Number of colonies (E. coli; [2]): − | Number of colonies (E. coli; [3]): − | Number of colonies (E. coli; [4]): − | Number of colonies (E. coli; [5]): − | Number of colonies (E. coli; [6]): − | Number of colonies (E. coli; [7]): − | Number of colonies (E. coli; [8]): − | Number of colonies (E. coli; [9]): − | Number of colonies (E. coli; [10]): − | Number of colonies (E. coli; Ceftazidime 5 mg, 10^1 cfu/mL): − | Number of colonies (E. coli; Ceftazidime 5 mg, 10^2 cfu/mL): − | Number of colonies (E. coli; Ceftazidime 5 mg, 10^3 cfu/mL): − | Number of colonies (E. coli; Ceftazidime 5 mg, 10^4 cfu/mL): − | Number of colonies (E. coli; Ceftazidime 5 mg, 10^5 cfu/mL): − | formation of a white colony (E. coli; added to TSA-BC, 30° C.): suppressed | Number of colonies (B. thuringiensis; [1]): 5 | Number of colonies (B. thuringiensis; [2]): 13 | Number of colonies (B. thuringiensis; [3]): + | Number of colonies (B. thuringiensis; [4]): + | Number of colonies (B. thuringiensis; [5]): + | Number of colonies (B. thuringiensis; [6]): 3 | Number of colonies (B. thuringiensis; [7]): 10 | Number of colonies (B. thuringiensis; [8]): + | Number of colonies (B. thuringiensis; [9]): + | Number of colonies (B. thuringiensis; [10]): + | Number of colonies (B. thuringiensis; Ceftazidime 5 mg, 10^1 cfu/mL): 4 | Number of colonies (B. thuringiensis; Ceftazidime 5 mg, 10^2 cfu/mL): 16 | Number of colonies (B. thuringiensis; Ceftazidime 5 mg, 10^3 cfu/mL): + | Number of colonies (B. thuringiensis; Ceftazidime 5 mg, 10^4 cfu/mL): + | Number of colonies (B. thuringiensis; Ceftazidime 5 mg, 10^5 cfu/mL): + | Number of colonies (E. amnigenus; [1]): − | Number of colonies (E. amnigenus; [2]): − | Number of colonies (E. amnigenus; [3]): 1 | Number of colonies (E. amnigenus; [4]): 33 | Number of colonies (E. amnigenus; [5]): + | Number of colonies (E. amnigenus; [6]): − | Number of colonies (E. amnigenus; [7]): − | Number of colonies (E. amnigenus; [8]): − | Number of colonies (E. amnigenus; [9]): − | Number of colonies (E. amnigenus; [10]): − | Number of colonies (E. amnigenus; Ceftazidime 5 mg, 10^1 cfu/mL): − | Number of colonies (E. amnigenus; Ceftazidime 5 mg, 10^2 cfu/mL): − | Number of colonies (E. amnigenus; Ceftazidime 5 mg, 10^3 cfu/mL): − | Number of colonies (E. amnigenus; Ceftazidime 5 mg, 10^4 cfu/mL): − | Number of colonies (E. amnigenus; Ceftazidime 5 mg, 10^5 cfu/mL): − | formation of a white colony (E. amnigenus; added to TSA-BC, 30° C.): suppressed | Number of colonies (B. cereus; ATCC11778, Ceftazidime 0.05 mg, 10^1 cfu/mL): 2 | Number of colonies (B. cereus; ATCC11778, Ceftazidime 0.05 mg, 10^2 cfu/mL): 11 | Number of colonies (B. cereus; ATCC11778, Ceftazidime 0.05 mg, 10^3 cfu/mL): + | Number of colonies (B. cereus; ATCC11778, Ceftazidime 0.05 mg, 10^4 cfu/mL): + | Number of colonies (B. cereus; ATCC11778, Ceftazidime 0.05 mg, 10^5 cfu/mL): + | Number of colonies (B. cereus; ATCC11778, Ceftazidime 0.5 mg, 10^1 cfu/mL): − | Number of colonies (B. cereus; ATCC11778, Ceftazidime 0.5 mg, 10^2 cfu/mL): 13 | Number of colonies (B. cereus; ATCC11778, Ceftazidime 0.5 mg, 10^3 cfu/mL): + | Number of colonies (B. cereus; ATCC11778, Ceftazidime 0.5 mg, 10^4 cfu/mL): + | Number of colonies (B. cereus; ATCC11778, Ceftazidime 0.5 mg, 10^5 cfu/mL): + | Number of colonies (B. cereus; ATCC11778, Ceftazidime 5 mg, 10^1 cfu/mL): − | Number of colonies (B. cereus; ATCC11778, Ceftazidime 5 mg, 10^2 cfu/mL): 17 | Number of colonies (B. cereus; ATCC11778, Ceftazidime 5 mg, 10^3 cfu/mL): + | Number of colonies (B. cereus; ATCC11778, Ceftazidime 5 mg, 10^4 cfu/mL): + | Number of colonies (B. cereus; ATCC11778, Ceftazidime 5 mg, 10^5 cfu/mL): + | Number of colonies (B. cereus; ATCC19637, Ceftazidime 0.05 mg, 10^1 cfu/mL): − | Number of colonies (B. cereus; ATCC19637, Ceftazidime 0.05 mg, 10^2 cfu/mL): 7 | Number of colonies (B. cereus; ATCC19637, Ceftazidime 0.05 mg, 10^3 cfu/mL): + | Number of colonies (B. cereus; ATCC19637, Ceftazidime 0.05 mg, 10^4 cfu/mL): + | Number of colonies (B. cereus; ATCC19637, Ceftazidime 0.05 mg, 10^5 cfu/mL): + | Number of colonies (B. cereus; ATCC19637, Ceftazidime 0.5 mg, 10^1 cfu/mL): − | Number of colonies (B. cereus; ATCC19637, Ceftazidime 0.5 mg, 10^2 cfu/mL): 12 | Number of colonies (B. cereus; ATCC19637, Ceftazidime 0.5 mg, 10^3 cfu/mL): + | Number of colonies (B. cereus; ATCC19637, Ceftazidime 0.5 mg, 10^4 cfu/mL): + | Number of colonies (B. cereus; ATCC19637, Ceftazidime 0.5 mg, 10^5 cfu/mL): + | Number of colonies (B. cereus; ATCC19637, Ceftazidime 5 mg, 10^1 cfu/mL): 3 | Number of colonies (B. cereus; ATCC19637, Ceftazidime 5 mg, 10^2 cfu/mL): 5 | Number of colonies (B. cereus; ATCC19637, Ceftazidime 5 mg, 10^3 cfu/mL): + | Number of colonies (B. cereus; ATCC19637, Ceftazidime 5 mg, 10^4 cfu/mL): + | Number of colonies (B. cereus; ATCC19637, Ceftazidime 5 mg, 10^5 cfu/mL): +
